Assay results as given in patent US20240376090A1, “ISOXAZOLE DERIVATIVES AS MODULATORS OF THE 5-HT2A SEROTONIN RECEPTOR USEFUL FOR THE TREATMENT OF DISORDERED RELATED THERETO” (Arena Pharmaceuticals, Inc., priority 2020, published 2024).
pKi: −log10 of the molar value.

Biological target: 5-HT2A receptor (Homo sapiens (Human), UniProt P28223)
Assay: Radioligand binding assay ([3H]5-HT competition), 5-HT2A
Conditions: [3H]5-HT radioligand, membranes of HEK293 cells expressing recombinant 5-HT2A; Ki from IC50 by Cheng-Prusoff; read-out: 5-HT2A serotonin binding Ki value
Protocol: Competition binding experiments consisted of addition of 5 μL of serially diluted test compound, 50 μL of radioligand stock diluted in Assay Buffer (20 mM HEPES, pH 7.4, 10 mM MgCl2), and 145 μL of diluted membrane expressing the receptor of interest to 96-well microtiter plates, which were then incubated for one hour at room temperature. Assay incubations were terminated by rapid filtration through Perkin Elmer GF/C filtration plates under vacuum pressure using a 96-well Packard filtration apparatus, followed by washing the filter plates several times with ice cold Assay Buffer. Plates were then dried at 45° C. for a minimum of four hours. Finally, 25 μL of BetaScint scintillation cocktail was added to each well and the plates were counted in a Packard TopCount scintillation counter. In each competition study, test compounds were assayed at 10 concentrations with three replicates at each test concentration. Dose-response curves were constructed to determine IC50 values and these were converted to corresponding Ki values using the Cheng-Prusoff equation.

Sequence of 5-HT2A receptor (P28223 whole entry): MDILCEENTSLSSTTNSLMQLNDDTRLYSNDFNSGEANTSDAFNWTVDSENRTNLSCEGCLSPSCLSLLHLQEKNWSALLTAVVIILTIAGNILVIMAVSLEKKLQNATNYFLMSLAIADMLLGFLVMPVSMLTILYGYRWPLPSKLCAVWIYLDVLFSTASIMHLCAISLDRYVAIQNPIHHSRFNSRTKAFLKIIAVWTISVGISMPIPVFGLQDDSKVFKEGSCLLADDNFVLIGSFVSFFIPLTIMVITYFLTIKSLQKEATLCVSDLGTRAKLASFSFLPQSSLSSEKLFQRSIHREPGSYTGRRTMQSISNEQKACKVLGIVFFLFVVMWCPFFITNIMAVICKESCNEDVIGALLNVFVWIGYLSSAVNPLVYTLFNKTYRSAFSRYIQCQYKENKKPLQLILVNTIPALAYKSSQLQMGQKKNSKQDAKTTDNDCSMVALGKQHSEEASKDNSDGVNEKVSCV

| Molecule | pKi |
| --- | --- |
| Cc1noc(C)c1-c1cc(NC(=O)c2c(F)cnn2C)ccc1OCCN1CCOCC1 [Compound 134, N-[3-(3,5-dimethylisoxazol-4-yl)-4-(2-morpholinoethoxy)phenyl]-4-fluoro-2-methyl-pyrazole-3-carboxamide] | 8.23 |
| Cc1noc(C)c1-c1cc(NC(=O)c2cc(F)ccn2)ccc1OCCN1CCCC1 [Compound 104, N-(3-(3,5-dimethylisoxazol-4-yl)-4-(2-(pyrrolidin-1-yl)ethoxy)phenyl)-4-fluoropicolinamide] | 7.71 |
| Cc1noc(C)c1-c1cc(NC(=O)Cc2ccccc2)ccc1OCCN1CCC1 [Compound 123, N-(4-(2-(azetidin-1-yl)ethoxy)-3-(3,5-dimethylisoxazol-4-yl)phenyl)-2-phenylacetamide] | 7.93 |
| CCN(C)CCOc1ccc(NC(=O)C2CC2)cc1-c1c(C)noc1C [Compound 149, N-(3-(3,5-dimethylisoxazol-4-yl)-4-(2-(ethyl(methyl)amino)ethoxy)phenyl)cyclopropanecarboxamide] | 7.86 |
| Cc1noc(C)c1-c1cc(NC(=O)C2CC2)ccc1OCCN1C[C@@H]2C[C@H]1CO2 [Compound 160, N-(4-(2-((1S,4S)-2-oxa-5-azabicyclo[2.2.1]heptan-5-yl)ethoxy)-3-(3,5-dimethylisoxazol-4-yl)phenyl)cyclopropanecarboxamide] | 8.39 |
| CCN(CC)CCOc1ccc(NC(=O)C2CC2)cc1-c1c(C)noc1C [Compound 153, N-(4-(2-(diethylamino)ethoxy)-3-(3,5-dimethylisoxazol-4-yl)phenyl)cyclopropanecarboxamide] | 6.96 |
| Cc1noc(C)c1-c1cc(NC(=O)C2CC2)ccc1OCCN(C)C1CCC1 [Compound 152, N-(4-(2-(cyclobutyl(methyl)amino)ethoxy)-3-(3,5-dimethylisoxazol-4-yl)phenyl)cyclopropanecarboxamide] | 7.38 |
| Cc1noc(C)c1-c1cc(NC(=O)C2CC2)ccc1OCCN1CC2(COC2)C1 [Compound 155, N-[3-(3,5-dimethylisoxazol-4-yl)-4-[2-(2-oxa-6-azaspiro[3.3]heptan-6-yl)ethoxy]phenyl]cyclopropanecarboxamide] | 7.66 |
| Cc1cnoc1C(=O)Nc1ccc(OC[C@H]2CCCCN2)c(-c2c(C)noc2C)c1 [Compound 195, (R)—N-(3-(3,5-dimethylisoxazol-4-yl)-4-(piperidin-2-ylmethoxy)phenyl)-4-methylisoxazole-5-carboxamide] | 7.82 |
| Cc1noc(C)c1-c1cc(NC(=O)c2c(F)cnn2C)ccc1OCCN1CCC1 [Compound 130, N-(4-(2-(azetidin-1-yl)ethoxy)-3-(3,5-dimethylisoxazol-4-yl)phenyl)-4-fluoro-1-methyl-1H-pyrazole-5-carboxamide] | 7.89 |
| Cc1noc(C)c1-c1cc(NC(=O)[C@@H]2C[C@@H]2F)ccc1OCCN1CCCC1 [Compound 108, (1S,2S)—N-(3-(3,5-dimethylisoxazol-4-yl)-4-(2-(pyrrolidin-1-yl)ethoxy)phenyl)-2-fluorocyclopropane-1-carboxamide] | 8.21 |
| COCC1(C(=O)Nc2ccc(OC[C@H]3CCCCN3)c(-c3c(C)noc3C)c2)CC1 [Compound 204, (R)—N-(3-(3,5-dimethylisoxazol-4-yl)-4-(piperidin-2-ylmethoxy)phenyl)-1-(methoxymethyl)cyclopropane-1-carboxamide] | 7.60 |
| Cc1noc(C)c1-c1cc(NC(=O)C2CC2)ccc1OCCN1CCC2(CC1)CC(=O)N2 [Compound 140, N-(3-(3,5-dimethylisoxazol-4-yl)-4-(2-(2-oxo-1,7-diazaspiro[3.5]nonan-7-yl)ethoxy)phenyl)cyclopropanecarboxamide] | 6.64 |
| Cc1noc(C)c1-c1cc(NC(=O)c2ncnn2C)ccc1OC[C@H]1CCCCN1 [Compound 212, (R)—N-(3-(3,5-dimethylisoxazol-4-yl)-4-(piperidin-2-ylmethoxy)phenyl)-1-methyl-1H-1,2,4-triazole-5-carboxamide] | 7.41 |
| Cc1noc(C)c1-c1cc(NC(=O)C2CC2)ccc1OC[C@H]1CCCN1 [Compound 175, (R)—N-(3-(3,5-dimethylisoxazol-4-yl)-4-(pyrrolidin-2-ylmethoxy)phenyl)cyclopropanecarboxamide] | 7.38 |
| Cc1noc(C)c1-c1cc(NC(=O)C2CC2)ccc1O[C@@H]1CCNC1 [Compound 181, (R)—N-(3-(3,5-dimethylisoxazol-4-yl)-4-(pyrrolidin-3-yloxy)phenyl)cyclopropanecarboxamide] | 8.00 |
| Cc1ncsc1CC(=O)Nc1ccc(OCCN2CCC2)c(-c2c(C)noc2C)c1 [Compound 127, N-(4-(2-(azetidin-1-yl)ethoxy)-3-(3,5-dimethylisoxazol-4-yl)phenyl)-2-(4-methylthiazol-5-yl)acetamide] | 8.07 |

| Molecule | pKi |
| --- | --- |
| Cc1noc(C)c1-c1cc(NC(=O)C2CC2)ccc1OCCN1CCOC(=O)CC1 [Compound 137, N-[3-(3,5-dimethylisoxazol-4-yl)-4-[2-(7-oxo-1,4-oxazepan-4-yl)ethoxy]phenyl]cyclopropanecarboxamide] | 6.26 |
| COCCNCCOc1ccc(NC(=O)C2(F)CC2)cc1-c1c(C)noc1C [Compound 237, N-[3-(3,5-dimethylisoxazol-4-yl)-4-[2-(2-methoxyethylamino)ethoxy]phenyl]-1-fluoro-cyclopropanecarboxamide] | 8.94 |
| Cc1noc(C)c1-c1cc(NC(=O)C2CC2)ccc1OCCN1CC[C@@H](O)C1 [Compound 148, (R)—N-(3-(3,5-dimethylisoxazol-4-yl)-4-(2-(3-hydroxypyrrolidin-1-yl)ethoxy)phenyl)cyclopropanecarboxamide] | 7.15 |
| Cc1noc(C)c1-c1cc(NC(=O)c2ccncc2)ccc1OCCN1CCCC1 [Compound 102, N-(3-(3,5-dimethylisoxazol-4-yl)-4-(2-(pyrrolidin-1-yl)ethoxy)phenyl)isonicotinamide] | 6.92 |
| Cc1noc(C)c1-c1cc(NC(=O)C2CC2)ccc1OCCN1C[C@H]2C[C@H]2C1 [Compound 164, N-[4-[2-[(1R,5S)-3-azabicyclo[3.1.0]hexan-3-yl]ethoxy]-3-(3,5-dimethylisoxazol-4-yl)phenyl]cyclopropanecarboxamide] | 7.86 |
| Cc1ncsc1C(=O)Nc1ccc(OCCN2CCCC2)c(-c2c(C)noc2C)c1 [Compound 109, N-(3-(3,5-dimethylisoxazol-4-yl)-4-(2-(pyrrolidin-1-yl)ethoxy)phenyl)-4-methylthiazole-5-carboxamide] | 8.42 |
| Cc1noc(C)c1-c1cc(NC(=O)c2cnn(C)c2C)ccc1OC[C@H]1CCCCN1 [Compound 211, (R)—N-(3-(3,5-dimethylisoxazol-4-yl)-4-(piperidin-2-ylmethoxy)phenyl)-1,5-dimethyl-1H-pyrazole-4-carboxamide] | 7.39 |
| Cc1noc(C)c1-c1cc(NC(=O)C2CC2)ccc1OC1CN(C)C1 [Compound 132, N-[3-(3,5-dimethylisoxazol-4-yl)-4-(1-methylazetidin-3-yl)oxy-phenyl]cyclopropanecarboxamide] | 7.34 |
| Cc1noc(C)c1-c1cc(NC(=O)Cc2ccc(F)cn2)ccc1OC[C@H]1CCCCN1 [Compound 227, (R)—N-(3-(3,5-dimethylisoxazol-4-yl)-4-(piperidin-2-ylmethoxy)phenyl)-2-(5-fluoropyridin-2-yl)acetamide] | 7.04 |
| Cc1noc(C)c1-c1cc(NC(=O)C2CC2)ccc1OCCN1CCN2C(=O)CCC2C1 (stereo not shown) [Compound 138, N-(3-(3,5-dimethylisoxazol-4-yl)-4-(2-(6-oxohexahydropyrrolo[1,2-a]pyrazin-2(1H)-yl)ethoxy)phenyl)cyclopropanecarboxamide] | 7.61 |
| Cc1noc(C)c1-c1cc(NC(=O)C2CC2)ccc1OCCN1CCC(CC(=O)O)CC1 [Compound 158, 2-[1-[2-[4-(cyclopropanecarbonylamino)-2-(3,5-dimethylisoxazol-4-yl)phenoxy]ethyl]-4-piperidyl]acetic acid] | 6.63 |
| Cc1noc(C)c1-c1cc(NC(=O)C(C)(C)F)ccc1OC[C@H]1CCCCN1 [Compound 199, N-[3-(3,5-dimethylisoxazol-4-yl)-4-[[(2R)-2-piperidyl]methoxy]phenyl]-2-fluoro-2-methyl-propanamide] | 7.45 |
| Cc1noc(C)c1-c1cc(NC(=O)C2CC2)ccc1OCCN1[C@@H]2COC[C@H]1C2 [Compound 159, N-[3-(3,5-dimethylisoxazol-4-yl)-4-[2-[(1R,5S)-3-oxa-6-azabicyclo[3.1.1]heptan-6-yl]ethoxy]phenyl]cyclopropanecarboxamide] | 8.79 |
| Cc1nc(C)c(C(=O)Nc2ccc(OC[C@H]3CCCCN3)c(-c3c(C)noc3C)c2)s1 [Compound 194, (R)—N-(3-(3,5-dimethylisoxazol-4-yl)-4-(piperidin-2-ylmethoxy)phenyl)-2,4-dimethylthiazole-5-carboxamide] | 7.49 |
| Cc1noc(C)c1-c1cc(NC(=O)C2(CF)CC2)ccc1OC[C@H]1CCCCN1 [Compound 200, (R)—N-(3-(3,5-dimethylisoxazol-4-yl)-4-(piperidin-2-ylmethoxy)phenyl)-1-(fluoromethyl)cyclopropane-1-carboxamide] | 8.04 |
| N-(4-(2-(azetidin-1-yl)ethoxy)-3-(3,5-dimethylisoxazol-4-yl)phenyl)-2-(5-fluoropyridin-2-yl)acetamide [Compound 129] | 6.74 |
| Cc1nc(C)c(C(=O)Nc2ccc(OC[C@H]3CCCCN3)c(-c3c(C)noc3C)c2)o1 [Compound 207, (R)—N-(3-(3,5-dimethylisoxazol-4-yl)-4-(piperidin-2-ylmethoxy)phenyl)-2,4-dimethyloxazole-5-carboxamide] | 6.63 |
